We go through four substances from patent US20250268982A1, “COMPOSITIONS AND METHODS FOR TREATMENT AND/OR PROPHYLAXIS OF PROTEINOPATHIES” (REGAIN THERAPEUTICS SWEDEN AB, priority 2021, published 2025).

Data set [1] relates to 5XFAD mice. Nature of the data set: Nest building behavioural test in 5XFAD mice. To be noted: peptide i.v., FIGS. 4A-4C. Type of data set: in vivo, mouse.
Protocol: Female wild type and 5xFAD transgenic mice (Jackson laboratories) were used for the mouse behavioural experiment. Mice were individually housed in controlled humidity, temperature and light conditions, and had ad libitum access to food and water. Randomization to treatment groups was carried out by using GraphPad QuickCalcs (GraphPad Software, San Diego, CA, USA), and all data analysis was performed blinded to the experimental groups. […] Every effort was made to minimize the harm and suffering of the animals. The mice were treated with the vehicle or peptide preparations once a week i.v. starting at the age of 1 month until 3 months of age. Behavioral testing: the 5xFAD mice have deficits in nest building test starting at 3 months of age. Briefly, the soft bedding material and plastic shelter tube are moved to the one end of the cage and soft tissue paper (17 cm×17 cm) is placed in the other end of the cage. After 24 hours, a picture of the cage is taken, and the points given according to the set scale. 0 points are given if tissue paper remains untouched, 5 points are given when animal incorporates tissue into nest.
Data set [2] has as its system 5XFAD mice. Nature of the data set: Plaque load by immunohistochemistry in brains of 5XFAD mice. The format is in vivo, mouse. The conditions noted are these: 5XFAD mice treated for five weeks. On the procedure: Female wild type and 5xFAD transgenic mice (Jackson laboratories) were used for the mouse behavioural experiment. Mice were individually housed in controlled humidity, temperature and light conditions, and had ad libitum access to food and water. Randomization to treatment groups was carried out by using GraphPad QuickCalcs (GraphPad Software, San Diego, CA, USA), and all data analysis was performed blinded to the experimental groups. All the animal experiments followed the Council of Europe Legislation and Regulation for Animal Protection and are approved by the National Animal Experiment Board of Finland. Every effort was made to minimize the harm and suffering of the animals. […]
Immunohistochemistry: The brains were post-fixed in 4% paraformaldehyde (PFA, Sigma-Aldrich, St. Louis, MO, USA) for 20 hours, followed by cryoprotection in 30% sucrose for 48 hours. […] For quantification of the immunoreactivities, hippocampal areas were imaged using 4 or 10× magnification on an AX70 microscope (Olympus corporation, Tokyo, Japan) with an adjacent digital camera (Color View 12 or F-View, Soft imaging system, Muenster, Germany) running AnalySis software (Soft Imaging System). Quantification of the immunoreactivities was performed using ImagePro Plus software (Media Cybernetics Inc., Rockville, MD, USA) at a predefined range and presented as relative immunoreactive area. […]

Data set [3] in a line: Thioflavin-T kinetics assay of aggregation propensity. Type of data set: physicochemical. To be noted: 500 μg/ml peptide in normal saline, 12-24 h; FIGS. 6A, 6B. As to the method: THT method. ThT (Sigma-Aldrich) was prepared at 4 mM in MQ water. 50 μL of 500 μg/ml peptide (in normal saline) were incubated with 250 μL of 2.4 mM ThT solution (in water). ThT fluorescence was measured at 440 nm excitation and 480 nm emission in a black, clear-bottom 96-well plates (Corning, USA) at 10-15 min intervals (from bottom with periodic shaking) over 12-24 h on SpectraMax i3 microplate reader (Molecular Devices, USA). Curves were fitted using GraphPad Prism software.

The next data set relates to ERK1/2 phosphorylation. Briefly: ERK1/2 phosphorylation ELISA in SH-SY5Y cells. The conditions noted are these: 30 pM peptide, 5 minutes, FIG. 16. Type of data set: cell-based. As to the method: Phosphorylation of ERK is important for cell proliferation, neurogenesis and synaptic plasticity, and is downstream of calcium influx through the α7 receptor. To obtain the data shown in FIG. 16, SH-SY5Y cells were treated with 30 pM peptide for 5 minutes, then lysed and ERK phosphorylation quantified via a commercial ELISA kit.
A general note: In an ELISA, binding on a coated surface is turned into a signal by an enzyme label.

Regarding “SEQ ID NO:3: Aβ40: Aβ42 with deletion of residues 41 and 42 of the beta-sheet aggregation domain”, the entries for the “phenotype restoration / rescue (behaviour)” value in the data set on 5XFAD mice [1] and in the data set with 5XFAD mice [1] (listed as RT3) were “phenotype restoration” and “phenotype rescue”, respectively. The “plaque load in the cortex versus vehicle treated animals” value in the data set on 5XFAD mice [2] (FIG. 5A) is recorded as “reduced plaque load in the cortex”. In the data set on 5XFAD mice [2] (FIG. 5B), the “plaque accumulation in the hippocampi versus vehicle treated animals” value is “decreased level of plaque accumulation in the hippocampi”. The “aggregation propensity (thioflavin-T fluorescence)” value (“aggregation propensity” for short) in data set [3] was “lower aggregation propensity than wild type Aβ42”.
Regarding “SEQ ID NO:88: Aβ42 analogue having a proline (P) substitution in place of methionine (M) at position 35 (M35P)”, in the data set on 5XFAD mice [1], the “phenotype restoration / rescue (behaviour)” value is “phenotype rescue”. Besides, the “aggregation propensity” value in data set [3] was “lower aggregation propensity than the peptide having SEQ ID NO:3”. In the data set on ERK1/2 phosphorylation, the “downstream ERK1/2 phosphorylation” value is “induces downstream ERK1/2 phosphorylation”.
Take “SEQ ID NO: 190: Aβ42 analogue with N-methyl methionine substituted for the naturally occurring methionine at position 35”: in data set [3], the “aggregation propensity” value is recorded as “lower aggregation propensity than wild type Aβ42”. For the same substance, the “downstream ERK1/2 phosphorylation” value with ERK1/2 phosphorylation was “induces downstream ERK1/2 phosphorylation”.
“SEQ ID NO: 192: Aβ42 analogue with pyrrolysine substituted for the naturally occurring methionine at position 35”: in data set [3], the “aggregation propensity” value is on record as “lower aggregation propensity than wild type Aβ42”.
